Experimental data published in patent publication US4443438A (priority 1978, dated 1984).
Read-outs that look alike come from different tables or passages of the source.

Key:
[1] = tested on: pesticide-resistant green rice leafhopper (Nephotettix cincticeps); test: whole plant or invertebrate; assay type: in vivo; conditions: for mortality at 0.0125 % / mortality at 0.0225 %: Nephotettix cincticeps, 24 h, read-out: Mortality (%) after 24 hours
Method: The dilute solution was sprayed on rice plants in a 180-ml plastic cup at a rate of 15 cc/3 cups by means of a turn table. After air-drying, the treated rice plants were placed in a 5-liter beaker which was then covered with gauze. About 15 female adults of pesticide-resistant green rice leafhopper (Nephotettix cincticeps) were released in the beaker. After 3 hours, the knock-down ratio was examined, and after 24 hours the mortality was examined.

[2] = tested on: green rice leafhoppers (Nephotettix cincticeps); test: Density index of green rice leafhopper adults in paddy field, sweeping method (Experimental example 1); assay type: in vivo; conditions: 3 kg/10 are, untreated = 100
[3] = tested on: pesticide-resistant green rice leafhopper (Nephotettix cincticeps); test: Mortality of pesticide-resistant green rice leafhopper on dusted rice plants (Experimental example 3); assay type: in vivo; conditions: 2 kg/10 are
Method: The dusts (36), (37), (39), (43), (47) or (48) prepared in Preparation example 2 were each applied by means of a Bell jar duster to rice plants in a 1/10,000 are Wagner's pot at a rate of 2 kg/10 are. The treated pot was placed in a cylinder (diameter 20 cm, height 60 cm) which was then covered with gauze. About 30 female adults of pesticide-resistant green rice leafhopper (Nephotettix cincticeps) were liberated therein. After 24 hours, the mortality was examined.

in vivo = conditions: mouse, po
[4] = tested on: rice stem borer (Chilo suppressalis); test: Mortality of rice stem borer on dusted rice plants (Experimental example 4); assay type: in vivo; conditions: 3 kg/10 are, five days after application, 7200 min
From the text: About 50 eggs just before hatch of rice stem borer (Chilo suppressalis) were put on rice plants at the tiller stage cultivated in a 1/5,000 are Wagner's pot. After 5 days, the dust (1) prepared in Preparation example 2 was applied thereto at a rate of 3 kg/10are by means of a Bell jar duster. Five days after application, the rice stem was dissected to observe the dead and alive of rice stem borers.

[5] = Fish toxicity to carps, TLm48 (Experimental example 6); assay type: in vivo; conditions: carp, in vivo, read-out: TLm48 (ppm)
Method: (§1) Ten liters of the dilute solution was placed in a 10-liter glass vessel and 10 carps were liberated therein. After 48 hours, the dead and alive were examined to calculate TLm48 (ppm).

harmful organisms = conditions: reported in Published Unexamined Japanese Patent Application No. 125145/1977; cited from earlier work
carps = test: Fish toxicity to carps, TLm48 (Experimental example 6); assay type: in vivo; conditions: as 0.3% dust; 48 hours
Method: as §1

[6] = as 20% wettable powder, diluted 25,000 times
[7] = 25% wettable powder, diluted 2,000 times

Question: For `CC1(C)C(C=C(Cl)Cl)C1C(=O)OC(C#N)c1cccc(Oc2ccc(Br)cc2)c1` (racemic), which “Knock-down ratio (%) after 3 hours” value [1, 6] is on record?
Answer: The value was 50%.

Question: What about the “Mortality (%) after 24 hours” value [1, 6] of the same compound?
Answer: The value was 80%.

Question: Which “Density index After 2 days” value ([2]; as 0.1% dust) does the source give for `CC1(C)C(C=C(Cl)Cl)C1C(=O)OC(C#N)c1cccc(Oc2ccc(Br)cc2)c1` (racemic) [m-(p-bromophenoxy)-α-cyanolbenzyl trans- or trans-rich-2,2-dimethyl-3-(2,2-dichlorovinyl)cyclopropanecarboxylate] here?
Answer: The value was 5.

Question: What about the “Density index After 15 days” value ([2]; as 0.1% dust) of the same compound?
Answer: Its value is 25.

Question: And the “Mortality (%) after 24 hours” value ([3]; as 0.05% dust)?
Answer: Its value is 85%.

Question: What about the LD50 at 24 h (in vivo) of the same compound?
Answer: Its LD50 at 24 h is over 2000 mg/kg.

Question: What does the source list for `CC1(C)[C@H](C=C(Cl)Cl)[C@H]1C(=O)OC(C#N)c1cccc(Oc2ccc(Br)cc2)c1` (relative stereo) [Compound of the formula (I) [dl(acid moiety)-trans isomer], m-(p-bromophenoxy)-α-cyanolbenzyl trans- or trans-rich-2,2-dimethyl-3-(2,2-dichlorovinyl)cyclopropanecarboxylate]?
Answer: Density index After 2 days ([2]; as 0.1% dust): 3; Density index After 15 days ([2]; as 0.1% dust): 18; Mortality (%) ([4]; as 0.1% dust): 20%; LC50 at 48 h ([5]; as 0.1% dust): > 5 µg/mL; LD50 at 24 h (in vivo): > 2000 mg/kg

Question: For `CCC(C)c1ccccc1OC(=O)NC` (centres unmarked) [BPMC, 2-sec-Butylphenyl N-methylcarbamate], which “Knock-down ratio (%) after 3 hours” value [1, 7] is on record?
Answer: The value was 3%.

Question: And the mortality at 0.0125 % [1, 7]?
Answer: The mortality at 0.0125 % was 3%.

Question: What does the source list for `COP(=S)(OC)Oc1ccc(SC)c(C)c1` [Baycid, O,O-Dimethyl O-[3-methyl-4-(methylthio)phenyl]thiophosphate]?
Answer: mortality at 0.0225 % [1]: 20%; Knock-down ratio (%) after 3 hours ([1]; in vivo): 0%

Question: For `CCOP(=S)(OCC)Oc1cc(C)nc(C(C)C)n1` [Diazinon, O,O-Diethyl O-(2-isopropyl-4-methyl-6-pyrimidinyl)phosphorothioate], which “Density index After 2 days” value ([2]; as 5% dust) is on record?
Answer: The value was 20.

Question: And the “Density index After 15 days” value ([2]; as 5% dust)?
Answer: Its value is 35.

Question: And the LC50 at 48 h ([5]; as 0.3% dust)?
Answer: The LC50 at 48 h was over 5 µg/mL.

Question: Which results are given for `CC(C)OP(=O)(OC(C)C)SCc1ccccc1` [IBP, O,O-Diisopropyl S-benzylphosphorothioate]?
Answer: mortality at 0.0225 % [1]: 0%; Knock-down ratio (%) after 3 hours ([1]; in vivo): 0%; LC50 at 48 h ([5]; as 0.3% dust): > 5 µg/mL

Question: For `CCCOP(=O)(OCCC)Oc1ccc(SC)cc1` [Kayaphos, O,O-Di-n-propyl p-methylthiophenylphosphate], which “Mortality (%) after 24 hours” value ([3]; as 2% dust) is on record?
Answer: Its value is 43%.

Question: With `CNC(=O)Oc1ccc(C)c(C)c1` [MPMC, 3,4-Xylyl N-methylcarbamate] as the compound, how does the “Density index After 2 days” value ([2]; as 3% dust) read?
Answer: Its value is 7.

Question: What about the “Density index After 15 days” value ([2]; as 3% dust) of the same compound?
Answer: The value was 60.

Question: What about the “Knock-down ratio (%) after 3 hours” value [1, 7] of the same compound?
Answer: The value was 10%.

Question: And the mortality at 0.0125 % [1]?
Answer: The mortality at 0.0125 % was 10%.

Question: With `CNC(=O)Oc1cccc(C)c1` [MTMC, m-Tolyl N-methylcarbamate] as the compound, how does the “Mortality (%) after 24 hours” value ([3]; as 2% dust) read?
Answer: Its value is 30%.

Question: With `CNC(=O)Oc1cccc2ccccc12` [NAC, 1-Naphthyl N-methylcarbamate] as the compound, how does the mortality at 0.0125 % [1] read?
Answer: Its mortality at 0.0125 % is 10%.

Question: Which LC50 at 48 h ([5]; as 0.3% dust) does the source give for `CNC(=O)Oc1ccccc1OC(C)C` [PHC, 2-Isopropoxyphenyl N-methylcarbamate] here?
Answer: Its LC50 at 48 h is over 5 µg/mL.

Question: With `COP(=S)(OC)Oc1ccc([N+](=O)[O-])c(C)c1` [Sumithion, O,O-Dimethyl O-(3-methyl-4-nitrophenyl)phosphorothioate] as the compound, how does the “Density index After 2 days” value ([2]; as 5% dust) read?
Answer: Its value is 60.

Question: And the “Density index After 15 days” value ([2]; as 5% dust)?
Answer: The value was 95.

Question: What about the mortality at 0.0225 % [1] of the same compound?
Answer: Its mortality at 0.0225 % is 15%.

Question: What about the “Knock-down ratio (%) after 3 hours” value ([1]; in vivo) of the same compound?
Answer: The value was 0%.

Question: And the “Mortality (%) after 24 hours” value ([3]; as 2% dust)?
Answer: The value was 10%.

Question: What about the “Mortality (%)” value ([4]; as 3% dust) of the same compound?
Answer: Its value is 70%.

Question: What about the LD50 at 24 h (in vivo) of the same compound?
Answer: Its LD50 at 24 h is over 1000 mg/kg.

Question: Which “insecticidal and acaricidal activity” value (harmful organisms) does the source give for `CC1(C)C(C=C(Cl)Cl)C1C(=O)OC(C#N)c1cccc(Oc2ccc(Br)cc2)c1` (stereo not drawn) [compound of the formula (I), m-(p-bromophenoxy)-α-cyanolbenzyl trans- or trans-rich-2,2-dimethyl-3-(2,2-dichlorovinyl)cyclopropanecarboxylate] here?
Answer: Its value is “has insecticidal and acaricidal activity”.

Question: For “m-Isopropylphenoxy N-methylcarbamate [MIPC]”, which “TLm48 (ppm)” value (carps) is on record?
Answer: The value was over 5 ppm.
